Results as given in patent publication US20230257385A1, “SALT AND SOLID FORMS OF TABERNANTHALOG” (priority 2021, published 2023).

Assays:
[1] = Suspension equilibration of sorbate salt at 20 and 40° C. (Example 10, Experiments 3, 4, 9); type: physicochemical; conditions: one solvent per sample; for XRPD (IPC, 6 d, wet): moist pellet after 6 d; for XRPD (post oven dried): pellet after oven drying
Method: The purpose of this panel is to determine if Form A evolves into a supra-ordinate form. The companion panel at 40° C. set-point is in place to detect enantiotropic behaviour via different relative proportions in different solvents. XRPD data of the moist pellets obtained from the suspension equilibration study at 20° C.
The relevant solvent (5 vol) was added to the appropriate vial and the suspensions were stirred and warmed to the predetermined temperature with stirring. […]

[2] = Dynamic vapour sorption (DVS) of selected salts (Example 8); type: physicochemical
Method: DVS: The moisture sorption properties of the feed API were analyzed by DVS Intrinsic instrument (Surface Measurement System). Approximately 20-50 mg of API was weighed on an aluminum pan and loaded into the instrument equilibrated at 25° C. The sample was allowed to equilibrate under dry atmosphere (0% relative humidity) for 60 minutes before increasing the humidity from 0% to 30% at 5% step increment and from 30% to 90% at 10% step increment. A desorption cycle was also applied from 90% to 30% (10% step) and from 30% to 0% (5% decrement). A rate of change in mass per time unit (dm/dt) of 0.002%/min was set as the equilibrium parameter. Kinetic and isotherm graphs were calculated.

[3] = sorbate salt Form A in 5 vol solvent, t = 1 d
[4] = sorbate salt Form A in 5 vol solvent, t = 10 d
[5] = sorbate salt Form A, ca. 50 mg in 5 vol solvent, t = 0
[6] = suspension equilibration at 40° C.
[7] = suspension equilibration at 20° C.

With C/C=C/C=C/C(=O)O.COc1ccc2c3c([nH]c2c1)CCN(C)CC3 [Experiment 4-Sample P] the “Observations (t = 1 d @ 40° C.)” value [1, 3] was “Suspension”, the “Observations (t = 10 d @ 40° C.)” value [1, 4] was “Suspension” and the “Observations (t = 0 @ 40° C.)” value [1, 5] was “Suspension”. The “XRPD (IPC, 6 d, wet)” value [1, 6] was “Form A” and the “XRPD (post oven dried)” value [1, 6] was “Form A”.

In the case of CC=CC=CC(=O)O.COc1ccc2c3c([nH]c2c1)CCN(C)CC3 [Experiment 4-Sample J], the “Observations (t = 1 d @ 40° C.)” value [1, 3] is reported as “Suspension”, the “Observations (t = 10 d @ 40° C.)” value [1, 4] is reported as “Suspension” and the “Observations (t = 0 @ 40° C.)” value [1, 5] is reported as “Suspension”. For the same molecule, the “XRPD (IPC, 6 d, wet)” value [1, 6] was “Form A” and the “XRPD (post oven dried)” value [1, 6] was “Form A”.

With CC=CC=CC(=O)O.COc1ccc2c3c([nH]c2c1)CCN(C)CC3 [Experiment 3-Sample B] the “Observations (t = 1 d @ 20° C.)” value ([1]; sorbate salt Form A in 5 vol solvent, 20° C., t = 1 d) was “Suspension”, the “Observations (t = 10 d @ 20° C.)” value ([1]; sorbate salt Form A in 5 vol solvent, 20° C., t = 10 d) was “Suspension” and the “Observations (t = 0 @ 20° C.)” value ([1]; sorbate salt Form A, ca. 50 mg in 5 vol solvent, 20° C., t = 0) was “Suspension”. For the same molecule, the “XRPD (IPC, 6 d, wet)” value [1, 7] was “Form A” and the “XRPD (post oven dried)” value [1, 7] was “Form A”.

In the case of COc1ccc2c3c([nH]c2c1)CCN(C)CC3.O=C(O)c1ccccc1 [Tabernanthalog• Benzoate], the “DVS 0 to 90 to 0% RH (dm/dt <0.002%), mass change” value (shortened to “DVS 0 to 90 to 0% RH … mass change”) ([2]; desorption, 0.0% RH) is reported as −0.037%, the “DVS 0 to 90 to 0% RH … mass change” value ([2]; desorption, 5.0% RH) is reported as −0.034% and the “DVS 0 to 90 to 0% RH … mass change” value ([2]; desorption, 10.0% RH) is reported as −0.032%. The “DVS 0 to 90 to 0% RH … mass change” value ([2]; desorption, 15.0% RH) was −0.032%, the “DVS 0 to 90 to 0% RH … mass change” value ([2]; desorption, 20.0% RH) was −0.029% and the “DVS 0 to 90 to 0% RH … mass change” value ([2]; desorption, 25.0% RH) was −0.028%. For the same molecule, the “DVS 0 to 90 to 0% RH … mass change” value ([2]; desorption, 30.0% RH) was −0.023%, the “DVS 0 to 90 to 0% RH … mass change” value ([2]; desorption, 40.0% RH) was −0.018% and the “DVS 0 to 90 to 0% RH … mass change” value ([2]; desorption, 50.0% RH) was −0.014%. For the same molecule, the “DVS 0 to 90 to 0% RH … mass change” value ([2]; desorption, 60.0% RH) was −0.001%, the “DVS 0 to 90 to 0% RH … mass change” value ([2]; desorption, 70.0% RH) was 0.034% and the “DVS 0 to 90 to 0% RH … mass change” value ([2]; desorption, 80.0% RH) was 0.063%. The “DVS 0 to 90 to 0% RH … mass change” value ([2]; desorption, 90.0% RH) was 0.118%, the “DVS 0 to 90 to 0% RH … mass change” value ([2]; sorption, 0.0% RH) was 0.00% and the “DVS 0 to 90 to 0% RH … mass change” value ([2]; sorption, 5.0% RH) was −0.001%. For the same molecule, the “DVS 0 to 90 to 0% RH … mass change” value ([2]; sorption, 10.0% RH) was 0.002%, the “DVS 0 to 90 to 0% RH … mass change” value ([2]; sorption, 15.0% RH) was −0.002% and the “DVS 0 to 90 to 0% RH … mass change” value ([2]; sorption, 20.0% RH) was −0.003%. The “DVS 0 to 90 to 0% RH … mass change” value ([2]; sorption, 25.0% RH) was −0.002%, the “DVS 0 to 90 to 0% RH … mass change” value ([2]; sorption, 30.0% RH) was 0.002% and the “DVS 0 to 90 to 0% RH … mass change” value ([2]; sorption, 40.0% RH) was 0.002%. For the same molecule, the “DVS 0 to 90 to 0% RH … mass change” value ([2]; sorption, 50.0% RH) was 0.006%, the “DVS 0 to 90 to 0% RH … mass change” value ([2]; sorption, 60.0% RH) was 0.009% and the “DVS 0 to 90 to 0% RH … mass change” value ([2]; sorption, 70.0% RH) was 0.009%. For the same molecule, the “DVS 0 to 90 to 0% RH … mass change” value ([2]; sorption, 80.0% RH) was 0.046% and the “DVS 0 to 90 to 0% RH … mass change” value ([2]; sorption, 90.0% RH) was 0.118%.

With C/C=C/C=C/C(=O)O.COc1ccc2c3c([nH]c2c1)CCN(C)CC3 [Experiment 4-Sample A] the “Observations (t = 1 d @ 40° C.)” value [1, 3] was “Suspension”, the “Observations (t = 10 d @ 40° C.)” value [1, 4] was “Suspension” and the “Observations (t = 0 @ 40° C.)” value [1, 5] was “Suspension”. The “XRPD (IPC, 6 d, wet)” value [1, 6] was “Form A” and the “XRPD (post oven dried)” value [1, 6] was “Form A”.
